Experimental data published in PubChem BioAssay AID1963843 (Molecular Pharmacology Branch, DTP, NCI, 2024).

System: 616215-338-R-J1-PDC complex spheroid viability
Assay: Anticancer human tumor 616215-338-R-J1-PDC patient-derived colon adenocarcinoma cell line growth inhibition [POLQ]
Conditions: for IC50: curve of first compound; for viability, T/C: stronger effect = lower value
Summary of the method: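 Growth inhibition in 3D: complex spheroids (tumor PDC, HUVEC, MSC) treated with POLQ inhibitor combinations; where Cmax unknown, highest tested concentration 10 microM, except SN-38 at 1 microM.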

[1] = second compound 0.0316 µM, first compound 0.0316 µM
[2] = second compound 0.0316 µM, first compound 0.1 µM
[3] = second compound 0.0316 µM, first compound 0.316 µM
[4] = second compound 0.0316 µM, first compound 1 µM
[5] = second compound 0.1 µM, first compound 0.0316 µM
[6] = second compound 0.1 µM, first compound 0.1 µM
[7] = second compound 0.1 µM, first compound 0.316 µM
[8] = second compound 0.1 µM, first compound 1 µM
[9] = second compound 0.316 µM, first compound 0.0316 µM
[10] = second compound 0.316 µM, first compound 0.1 µM
[11] = second compound 0.316 µM, first compound 0.316 µM
[12] = second compound 0.316 µM, first compound 1 µM
[13] = second compound 1 µM, first compound 0.0316 µM
[14] = second compound 1 µM, first compound 0.1 µM
[15] = second compound 1 µM, first compound 0.316 µM
[16] = second compound 1 µM, first compound 1 µM
[17] = second compound 3.16 µM, first compound 0.0316 µM
[18] = second compound 3.16 µM, first compound 0.1 µM
[19] = second compound 3.16 µM, first compound 0.316 µM
[20] = second compound 3.16 µM, first compound 1 µM
[21] = second compound 10 µM, first compound 0.0316 µM
[22] = second compound 10 µM, first compound 0.1 µM
[23] = second compound 10 µM, first compound 0.316 µM
[24] = second compound 10 µM, first compound 1 µM
[25] = second compound 0.0316 µM, first compound 3.16 µM
[26] = second compound 0.0316 µM, first compound 10 µM
[27] = second compound 0.1 µM, first compound 3.16 µM
[28] = second compound 0.1 µM, first compound 10 µM
[29] = second compound 0.316 µM, first compound 3.16 µM
[30] = second compound 0.316 µM, first compound 10 µM
[31] = second compound 1 µM, first compound 3.16 µM
[32] = second compound 1 µM, first compound 10 µM
[33] = second compound 3.16 µM, first compound 3.16 µM
[34] = second compound 3.16 µM, first compound 10 µM
[35] = second compound 10 µM, first compound 3.16 µM
[36] = second compound 10 µM, first compound 10 µM
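Further: spheroids exposed to compounds for one week before readout.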
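Wherever viability, T/C is given: percent viability relative to DMSO vehicle wells taken as 100%.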

CCc1c2c(nc3ccc(O)cc13)-c1cc3c(c(=O)n1C2)COC(=O)[C@]3(O)CC + Nc1ccc(C#CCN(C(=O)Cc2ncc(C(F)(F)F)cc2C(F)(F)F)c2ccc(F)cc2)nn1
IC50 (second compound 0.0316 µM): 10.4 nM
IC50 (second compound 0.1 µM): 14.8 nM
IC50 (second compound 0.316 µM): 18.1 nM
IC50 (second compound 1 µM): 8.73 nM
IC50 (second compound 3.16 µM): 8.16 nM
IC50 (second compound 10 µM): 7.26 nM
viability, T/C (second compound 0.0316 µM, first compound 0.00316 µM): 82.6%
viability, T/C (second compound 0.0316 µM, first compound 0.01 µM): 51.4%
viability, T/C [1]: 28.6%
viability, T/C [2]: 23.1%
viability, T/C [3]: 15.7%
viability, T/C [4]: 9.67%
viability, T/C (second compound 0.1 µM, first compound 0.00316 µM): 85.5%
viability, T/C (second compound 0.1 µM, first compound 0.01 µM): 55.2%
viability, T/C [5]: 33.7%
viability, T/C [6]: 32.2%
viability, T/C [7]: 15.5%
viability, T/C [8]: 9.4%
viability, T/C (second compound 0.316 µM, first compound 0.00316 µM): 72.8%
viability, T/C (second compound 0.316 µM, first compound 0.01 µM): 71%
viability, T/C [9]: 30.3%
viability, T/C [10]: 28.1%
viability, T/C [11]: 17.3%
viability, T/C [12]: 10.2%
viability, T/C (second compound 1 µM, first compound 0.00316 µM): 83.8%
viability, T/C (second compound 1 µM, first compound 0.01 µM): 37.8%
viability, T/C [13]: 34%
viability, T/C [14]: 28.9%
viability, T/C [15]: 17%
viability, T/C [16]: 10.2%
viability, T/C (second compound 3.16 µM, first compound 0.00316 µM): 77.6%
viability, T/C (second compound 3.16 µM, first compound 0.01 µM): 39.2%
viability, T/C [17]: 29.3%
viability, T/C [18]: 28.6%
viability, T/C [19]: 11.9%
viability, T/C [20]: 10.9%
viability, T/C (second compound 10 µM, first compound 0.00316 µM): 59.2%
viability, T/C (second compound 10 µM, first compound 0.01 µM): 47.8%
viability, T/C [21]: 28.5%
viability, T/C [22]: 22.5%
viability, T/C [23]: 16.1%
viability, T/C [24]: 12.8%

Nc1ccn(C2OC(CO)C(O)C2(F)F)c(=O)n1 (stereo unspecified) + Nc1ccc(C#CCN(C(=O)Cc2ncc(C(F)(F)F)cc2C(F)(F)F)c2ccc(F)cc2)nn1
IC50 (second compound 0.0316 µM): < 31.6 nM
IC50 (second compound 0.1 µM): < 31.6 nM
IC50 (second compound 0.316 µM): < 31.6 nM
IC50 (second compound 1 µM): < 31.6 nM
IC50 (second compound 3.16 µM): < 31.6 nM
IC50 (second compound 10 µM): < 31.6 nM
viability, T/C [1]: 22.1%
viability, T/C [2]: 17.1%
viability, T/C [3]: 10.8%
viability, T/C [4]: 10.9%
viability, T/C [25]: 14.9%
viability, T/C [26]: 16.1%
viability, T/C [5]: 27.7%
viability, T/C [6]: 15.5%
viability, T/C [7]: 12.6%
viability, T/C [8]: 12.6%
viability, T/C [27]: 12.6%
viability, T/C [28]: 12.6%
viability, T/C [9]: 28.6%
viability, T/C [10]: 24.1%
viability, T/C [11]: 10.9%
viability, T/C [12]: 13.3%
viability, T/C [29]: 12.6%
viability, T/C [30]: 13.8%
viability, T/C [13]: 22.7%
viability, T/C [14]: 15.2%
viability, T/C [15]: 11.2%
viability, T/C [16]: 12.6%
viability, T/C [31]: 13.1%
viability, T/C [32]: 13.3%
viability, T/C [17]: 23.6%
viability, T/C [18]: 19.6%
viability, T/C [19]: 12%
viability, T/C [20]: 10.3%
viability, T/C [33]: 13.6%
viability, T/C [34]: 13.9%
viability, T/C [21]: 26.8%
viability, T/C [22]: 20.3%
viability, T/C [23]: 12.2%
viability, T/C [24]: 12.6%
viability, T/C [35]: 11.3%
viability, T/C [36]: 12.2%

O=c1[nH]cc(F)c(=O)[nH]1 + Nc1ccc(C#CCN(C(=O)Cc2ncc(C(F)(F)F)cc2C(F)(F)F)c2ccc(F)cc2)nn1
IC50 (second compound 0.0316 µM): 479 nM
IC50 (second compound 0.1 µM): 509 nM
IC50 (second compound 0.316 µM): 529 nM
IC50 (second compound 1 µM): 529 nM
IC50 (second compound 3.16 µM): 278 nM
IC50 (second compound 10 µM): 437 nM
viability, T/C [1]: 101%
viability, T/C [2]: 82.2%
viability, T/C [3]: 56.6%
viability, T/C [4]: 38.9%
viability, T/C [25]: 35.9%
viability, T/C [26]: 37.5%
viability, T/C [5]: 93.3%
viability, T/C [6]: 92.2%
viability, T/C [7]: 53.7%
viability, T/C [8]: 43.5%
viability, T/C [27]: 44.9%
viability, T/C [28]: 45.6%
viability, T/C [9]: 103%
viability, T/C [10]: 77.6%
viability, T/C [11]: 60.6%
viability, T/C [12]: 35.6%
viability, T/C [29]: 42%
viability, T/C [30]: 39.7%
viability, T/C [13]: 97.5%
viability, T/C [14]: 89.7%
viability, T/C [15]: 57.5%
viability, T/C [16]: 40.7%
viability, T/C [31]: 38.4%
viability, T/C [32]: 39.7%
viability, T/C [17]: 95.1%
viability, T/C [18]: 90.5%
viability, T/C [19]: 44.8%
viability, T/C [20]: 41.6%
viability, T/C [33]: 36.4%
viability, T/C [34]: 37.5%
viability, T/C [21]: 91.1%
viability, T/C [22]: 75.7%
viability, T/C [23]: 55.5%
viability, T/C [24]: 38.2%
viability, T/C [35]: 35.7%
viability, T/C [36]: 37.6%
